From ChEMBL document CHEMBL5046313, “Synthesis and Optimization of Nitroxide-Based Inhibitors of Ferroptotic Cell Death in Cancer Cells and Macrophages” (ACS Med Chem Lett, 2022)

Key:
RAW264.7 = test: Anti-ferroptotic activity against RSL-3 induced ferroptosis in mouse RAW264.7 cells assessed as cell activity measured after 24 hrs by Cell Titer-Glo luminescent assay; assay type: functional, cell-based; conditions: RAW264.7, 24 h
HT-1080 = test: Anti-ferroptotic activity against Erastin-induced ferroptosis in human HT-1080 cells assessed as cell activity measured after 24 hrs by Cell Titer-Glo luminescent assay; assay type: functional, cell-based; conditions: HT-1080, 24 h
[1] = Lipophilicity, log P of the compound; assay type: physicochemical; conditions: octanol/water
[2] = Metabolic stability in human liver S9 fraction assessed as half life measured upto 60 mins in presence of NADPH by LC-MS/MS analysis; assay type: ADME, subcellular
[3] = Metabolic stability in mouse liver S9 fraction assessed as half life measured upto 60 mins in presence of NADPH by LC-MS/MS analysis; assay type: ADME, subcellular

SMILES | EC50 (HT-1080) [nM] | logP [1] | half-life [2] [min] | half-life [3] [min] | EC50 (RAW264.7) [nM]
CCOC(=O)c1ccc(NC2CCCCC2)c(N)c1 | 70 | 2.8 |  |  | 40
CC(C)C[C@@H](/C=C/C1(C(=O)NC2CC(C)(C)NC(C)(C)C2)CC1)NC(=O)OC(C)(C)C | 800 | 3.5 |  |  | 1130
CC(C)C[C@@H](/C=C/C(C)(C)C(=O)NC1CC(C)(C)NC(C)(C)C1)NC(=O)OC(C)(C)C | 240 | 4 |  |  | 1150
CC(C)C[C@@H](/C=C/C1(C(=O)NC2CC(C)(C)NC(C)(C)C2)CCOCC1)NC(=O)OC(C)(C)C | 2200 | 3.1 |  |  | 
CC1(C)CC(NC(=O)C/C=C/[C@H](NC(=O)OC(C)(C)C)c2ccccc2)CC(C)(C)N1 | 1300 | 2.9 |  |  | 2760
CC(C)C[C@H](/C=C/C(C)(C)C(=O)NC1CC(C)(C)NC(C)(C)C1)NC(=O)OC(C)(C)C | 250 | 4 | 7 | 3 | 1170
CC(C)C[C@@H](/C=C/CC(=O)NC1CC(C)(C)NC(C)(C)C1)NC(=O)OC(C)(C)C | 3580 | 2.8 | 5 | 9 | 4090
CC(C)C[C@@H](/C=C/C1(C(=O)NC2CC(C)(C)NC(C)(C)C2)CCCC1)NC(=O)OC(C)(C)C | 560 | 4.4 |  |  | 

Now from value to compound, other results behind:

EC50 (HT-1080) [nM] | logP [1] | half-life [2] [min] | half-life [3] [min] | SMILES | EC50 (RAW264.7) [nM]
330 | 4.2 |  |  | CC1(C)CC(NC(=O)C(C)(C)/C=C/[C@H](NC(=O)OC(C)(C)C)c2ccccc2)CC(C)(C)N1 | 
280 | 7.9 |  |  | CC1(C)CC(NC(=O)C(/C=C/[C@@H](NC(=O)OC(C)(C)C)c2ccc(F)cc2)(Cc2ccc(F)cc2)Cc2ccc(F)cc2)CC(C)(C)N1 | 
130 | 7.2 | 7 | 3 | CC(C)C[C@@H](/C=C/C(Cc1ccccc1)(Cc1ccccc1)C(=O)NC1CC(C)(C)NC(C)(C)C1)NC(=O)OC(C)(C)C | 370
430 | 6 |  |  | CC1(C)CC(NC(=O)C(/C=C/[C@@H](NC(=O)OC(C)(C)C)c2ccoc2)(Cc2ccc(F)cc2)Cc2ccc(F)cc2)CC(C)(C)N1 | 
> 2000 | 5.8 |  |  | CC1(C)CC(NC(=O)C(/C=C/[C@@H](NC(=O)OC(C)(C)C)c2ccc(F)cc2)(Cc2ccc(F)cn2)Cc2ccc(F)cn2)CC(C)(C)N1 | 
240 | 6 |  |  | CC1(C)CC(NC(=O)C(/C=C/[C@H](NC(=O)OC(C)(C)C)c2ccoc2)(Cc2ccc(F)cc2)Cc2ccc(F)cc2)CC(C)(C)N1 | 
180 | 7.6 |  |  | CC(C)C[C@H](/C=C/C(Cc1ccc(F)cc1)(Cc1ccc(F)cc1)C(=O)NC1CC(C)(C)NC(C)(C)C1)NC(=O)OC(C)(C)C | 
340 | 7.9 | 7 | 3 | CC1(C)CC(NC(=O)C(/C=C/[C@H](NC(=O)OC(C)(C)C)c2ccc(F)cc2)(Cc2ccc(F)cc2)Cc2ccc(F)cc2)CC(C)(C)N1 | 250
330 | 7.6 |  |  | CC(C)C[C@@H](/C=C/C(Cc1ccc(F)cc1)(Cc1ccc(F)cc1)C(=O)NC1CC(C)(C)NC(C)(C)C1)NC(=O)OC(C)(C)C | 600
